Measurements as given in patent US20080063643A1, “Peptide Derived From Hepatitis C Virus” (priority 2003, published 2008).
No end group written: not given here.

Legend:
[1] = system: C1R-A2402 cell pulsed with a corresponding peptide; assay: 6-hour 51Cr release assay of peptide-stimulated PBMC (Example 2); type: cell-based, human; details: cells pre-loaded with corresponding peptide versus HIV peptide; three E/T ratios
Procedure: The cytotoxicity of these peptide-stimulated PBMC was examined by a 6-hour ^51Cr release assay (FIG. 15). Peptide-stimulated PBMC showing positive response in the IFN-γ production assay (described above) was cultured and grown in vitro only with IL-2. Then, cytotoxicity against C1R-A2402 cell pulsed with a corresponding peptide or an HIV peptide (negative control) was tested by a standard 6-hour ^51Cr release assay at three different E/T cell ratios.
The peptide-stimulated PBMC used in the experiment shown in FIG. 15 was tested for cytotoxicity against C1R-A2402 cells pulsed with a corresponding peptide in the presence of 20 μg/ml of an anti-HLA-class I (W6/32, IgG2a), anti-HLA-class II (H-DR-1, IgG2a), anti-CD8 (Nu-Ts/c, IgG2a) or anti-CD4 (Nu-Th/i, IgG1) monoclonal antibody (mAb). An anti-CD14 (JML-H14, IgG2a) mAb was used as a negative control.

[2] = system: C1R-A2402 cell stably transfected with NS5A gene; details: 6-hour 51Cr release, three E/T ratios
Procedure: In order to prepare a stable transfectant cell line, either pCR3.1-NS5A or pCR3.1-HLA-A3101 (negative control) was transfected to C1R-A2402 cell by electroporation using a Gene Pulser (BioRAD, Richmond, Calif.) These cells were cultured for 30 to 40 days in the presence of geneticin (G418), and then geneticin resistant cells were collected.
Next, cytotoxicity was tested against C1R-A2402 cell that was stably transfected with NS5A gene and used as a target cell.
Then, cytotoxicity was tested by a 6-hour ^51Cr release assay using C1R-A2402 cell that was stably transfected with NS5A gene as a target cell. C1R-A2402 cell that was stably transfected with a negative control gene (HLA-A3101) was used as a negative control, and C1R-A2402 cell that was pulsed with NS5A-2132 peptide was used as a positive control. A 6-hour ^51Cr release assay was carried out at three different E/T ratios. The values are expressed as the mean±SD of percentage of specific lysis.

[3] = system: PBMCs from HLA-A24+ patients infected with HCV-1b and HLA-A24+ HDs; assay: IFN-γ production by peptide-stimulated PBMC (Example 2); type: cell-based, human; details: C1R-A2402 cells pulsed with the negative control peptide
Procedure: Peptide-specific CTL precursor cells were detected by the method as described in Hida et al. (Cancer Immunol Immunother 2002; 51: 219-228). For an inhibition assay, 20 μg/ml of anti-HLA class I (W6/32, IgG2a), anti-CD8 (Nu-Ts/c, IgG2a), anti-CD4 (Nu-Th/i, IgG1b) and anti-HLA class II (H-DR-1, IgG) monoclonal antibodies were used.
PBMCs from HLA-A24^+ patients infected with HCV-1b (n=12, 6 CH patients, 3 LC patients, and 3 HCC patients) and HLA-A24^+ HDs (n=5) without HCV infection were cultured with each of the 6 types of peptides (purity >90%) or a control HIV peptide for 13 days, and examined for IFN production in response to C1R-A2402 cell pulsed with a corresponding peptide. PBMCs from HLA-A24^+ HCV-1b^+ patients (n=12) and HDs (n=5) were stimulated with any of the 6 types of peptides in 4 wells (15×10^4/well). On day 14 of the culture, the peptide-stimulated PBMCs (80 to 120×10^4/well) were separately collected from each well and divided into quarters. Two portions of them were tested separately for the ability to produce IFN-γ in response to C1R-A2402 cells pulsed with the corresponding peptide. The remaining two portions were tested with cells using the negative control peptide (HIV). The level of IFN-γ produced in response to the HIV peptide (<50 pg/ml) was subtracted as background.

Sequence | cytotoxicity of peptide-stimulated PBMC [1] | cytotoxicity against NS5A-transfected cells versus negative control gene [2] | level of IFN-γ produced in response to the peptide (background) [3] [pg/mL]
RYAPACKPL [No. 3] | showed a significant level of cytotoxicity | showed a higher cytotoxicity level | –
RYLRDQQLLGI [HIV peptide] | – | – | < 50
